Values after ≈ are worked out from the molar mass of the structure shown. Values joined by “and” are separate entries in the source; they are usually repeats but may differ in a detail not shown here. Identical values can stand only once. Like-named read-outs stand apart in the source and are kept apart here. Each block holds one compound with its values, some of them ahead of it.
Key:
E. coli W3110 = experiment: MIC by broth microdilution; assay type: cell-based, Escherichia coli; conditions: for MIC: broth microdilution, read-out: MIC E. coli W3110; for antimicrobial activity: relative to parent compound
Method: (§1) MIC was determined by broth microdilution. Single-colony cultures were grown to exponential phase (OD600 of 0.5) aerobically at 37 °C. In case of strains from the Keio collection, 50 µg ml^−1 kanamycin was supplemented to the media to ascertain a homogeneous population. The bacterial suspensions were diluted 100-fold in CAMHB and 50 µl was added to a twofold serial dilution series of test compounds (50 µl per well) in polypropylene 96-well microtitre plates to reach a volume of 100 µl. The plates were sealed with breathable membranes and incubated overnight at 37 °C with constant shaking (600 r.p.m.).

K. pneumoniae ATCC 29665 = experiment: MIC by broth microdilution; assay type: cell-based, Klebsiella pneumoniae; conditions: read-out: MIC K. pneumoniae ATCC 29665
Method: as §1

HepG2 = experiment: Cytotoxicity assay (MTT); assay type: cell-based, human; conditions: for IC50: Homo sapiens, HepG2, 24 h, MTT, 24 h
Method: (§2) HepG2 (ATCC HB-8065) and HEK293T (ATCC CRL-3216) cell lines were cultured at 37 °C and 7% CO2 in Dulbecco’s modified Eagle medium (Sigma-Aldrich, D6546) with GlutaMax, penicillin (100 µg ml^−1), streptomycin (100 µg ml^−1) and 10% fetal calf serum. Cells were passaged twice a week by first detaching using 0.05% trypsin in phosphate-buffered saline (PBS) and then diluting to appropriate confluence. Compound cytotoxicity was evaluated using the standard (3-(4,5-dimethylthiazol-2-yl)-2,5-diphenyltetrazolium bromide (MTT) assay protocol (MTT assay protocol for cell viability and proliferation, Merck) with slight changes. HepG2 and HEK293T cells were seeded at a density of 1.5 × 10^4 cells per well in a clear 96-well tissue culture treated plate in a final volume of 100 µl in Dulbecco’s modified Eagle medium, supplemented with fetal bovine serum (1%), GlutaMax and penicillin/streptomycin. Cells were incubated for 24 h at 37 °C, 7% CO2 to allow cells to attach to the plates. […] Incubation was done for 24 h at 37 °C, 7% CO2. After the incubation, MTT was added to each well at a final concentration of 0.40 mg ml^−1. The plates were then incubated for 2 h at 37 °C, 7% CO2. Medium was carefully removed via suction, and purple formazan crystals were resuspended in 100 µl DMSO. Absorbance was read at 570 nm using a Clariostar plate reader with MARS (V4.20). The data were then analysed with GraphPad Prism software. IC50 values were calculated using non-linear fitted curve with variable slope settings, with values adjusted for background (plotted absorbance (ABS)sample = (ABSsample – ABSbackground) / (ABSvehicle – ABSbackground)). Technical triplicates for each condition were used, along with biological duplicates.

HEK293T = experiment: Cytotoxicity assay (MTT); assay type: cell-based, human; conditions: for MTT data (raw readout): HEK293T; for IC50: 24 h, MTT
Method: as §2

[1] = Klebsiella pneumoniae, ATCC29665, broth microdilution
[2] = HepG2, 0.023 uM, experiment n = 1, technical triplicates
[3] = HepG2, 0.023 uM, experiment n = 2, technical triplicates
[4] = HepG2, 0.068 uM, experiment n = 1, technical triplicates
[5] = HepG2, 0.068 uM, experiment n = 2, technical triplicates
[6] = HepG2, 0.21 uM, experiment n = 1, technical triplicates
[7] = HepG2, 0.21 uM, experiment n = 2, technical triplicates
[8] = HepG2, 0.62 uM, experiment n = 1, technical triplicates
[9] = HepG2, 0.62 uM, experiment n = 2, technical triplicates
[10] = HepG2, 1.85 uM, experiment n = 1, technical triplicates
[11] = HepG2, 1.85 uM, experiment n = 2, technical triplicates
[12] = 0.023 uM, experiment n = 1, technical triplicates
[13] = 0.023 uM, experiment n = 2, technical triplicates
[14] = 0.068 uM, experiment n = 1, technical triplicates
[15] = 0.068 uM, experiment n = 2, technical triplicates
[16] = 0.21 uM, experiment n = 1, technical triplicates
[17] = 0.21 uM, experiment n = 2, technical triplicates
[18] = 0.62 uM, experiment n = 1, technical triplicates
[19] = 0.62 uM, experiment n = 2, technical triplicates
[20] = 1.85 uM, experiment n = 1, technical triplicates
[21] = 1.85 uM, experiment n = 2, technical triplicates
[22] = 5.6 uM, experiment n = 1, technical triplicates
[23] = 5.6 uM, experiment n = 2, technical triplicates
[24] = 16.7 uM, experiment n = 1, technical triplicates
[25] = 50 uM, experiment n = 1, technical triplicates
[26] = 50 uM, experiment n = 2, technical triplicates

MIC (E. coli W3110; Escherichia coli, W3110, WT): 6.25 µM (≈ 2.65 µg/mL)
MIC (K. pneumoniae ATCC 29665; [1]): 12.5 µM (≈ 5.29 µg/mL)
Structure (SMILES): O=S(=O)(NCCNCc1ccc(-c2ccsc2)cc1)c1cccc2cnccc12 [Compound 57]
antimicrobial activity (E. coli W3110): equally potent
MTT data (raw readout) (HepG2; [2]): 0.512 and 0.502 and 0.507
MTT data (raw readout) (HepG2; [3]): 0.479 and 0.518 and 0.476
MTT data (raw readout) (HepG2; [4]): 0.477 and 0.445 and 0.510
MTT data (raw readout) (HepG2; [5]): 0.538 and 0.507 and 0.588
MTT data (raw readout) (HepG2; [6]): 0.485 and 0.473 and 0.497
MTT data (raw readout) (HepG2; [7]): 0.529 and 0.523 and 0.494
MTT data (raw readout) (HepG2; [8]): 0.426 and 0.445 and 0.470
MTT data (raw readout) (HepG2; [9]): 0.529 and 0.507 and 0.472
MTT data (raw readout) (HepG2; [10]): 0.360 and 0.379 and 0.361
MTT data (raw readout) (HepG2; [11]): 0.404 and 0.395 and 0.409
MTT data (raw readout) (HepG2; HepG2, 5.6 uM, experiment n = 1, technical triplicates): 0.268 and 0.278 and 0.299
MTT data (raw readout) (HepG2; HepG2, 5.6 uM, experiment n = 2, technical triplicates): 0.322 and 0.303 and 0.267
MTT data (raw readout) (HepG2; HepG2, 16.7 uM, experiment n = 1, technical triplicates): 0.206 and 0.230 and 0.232
MTT data (raw readout) (HepG2; HepG2, 16.7 uM, experiment n = 2, technical triplicates): 0.246 and 0.259
MTT data (raw readout) (HepG2; HepG2, 50 uM, experiment n = 2, technical triplicates): 0.039 and 0.047 and 0.038
IC50 (HepG2): 8.2 µM
MTT data (raw readout) (HEK293T; [12]): 0.793 and 0.726 and 0.620
MTT data (raw readout) (HEK293T; [13]): 0.807 and 0.803 and 0.611
MTT data (raw readout) (HEK293T; [14]): 0.732 and 0.738 and 0.650
MTT data (raw readout) (HEK293T; [15]): 0.765 and 0.761 and 0.569
MTT data (raw readout) (HEK293T; [16]): 0.722 and 0.771 and 0.628
MTT data (raw readout) (HEK293T; [17]): 0.825 and 0.737 and 0.605
MTT data (raw readout) (HEK293T; [18]): 0.689 and 0.691 and 0.563
MTT data (raw readout) (HEK293T; [19]): 0.748 and 0.715 and 0.545
MTT data (raw readout) (HEK293T; [20]): 0.625 and 0.610 and 0.502
MTT data (raw readout) (HEK293T; [21]): 0.678 and 0.632 and 0.506
MTT data (raw readout) (HEK293T; [22]): 0.490 and 0.501 and 0.402
MTT data (raw readout) (HEK293T; [23]): 0.448 and 0.475 and 0.377
MTT data (raw readout) (HEK293T; [24]): 0.253 and 0.231 and 0.202
MTT data (raw readout) (HEK293T; 16.7 uM, experiment n = 2, technical triplicates): 0.296 and 0.267 and 0.213
MTT data (raw readout) (HEK293T; [25]): 0.051 and 0.066 and 0.048
MTT data (raw readout) (HEK293T; [26]): 0.078 and 0.094 and 0.056
IC50 (HEK293T; Homo sapiens, HEK-293T): 6.6 µM

MIC (E. coli W3110; Escherichia coli, W3110, WT): 3.1 µM (≈ 1.35 µg/mL)
MIC (E. coli W3110; WT): 3.125 µM (≈ 1.36 µg/mL)
MIC (K. pneumoniae ATCC 29665; [1]): 6.25 µM (≈ 2.72 µg/mL)
Structure (SMILES): O=S(=O)(NCCNCc1ccc(-c2ccc(F)cc2)cc1)c1cccc2cnccc12 [Compound 59]
antimicrobial activity (E. coli W3110): twofold increase in potency
MTT data (raw readout) (HepG2; [2]): 1.000 and 0.992 and 0.989
MTT data (raw readout) (HepG2; [3]): 0.854 and 0.789 and 0.774
MTT data (raw readout) (HepG2; [4]): 0.940 and 0.990 and 0.945
MTT data (raw readout) (HepG2; [5]): 0.876 and 0.808 and 0.777
MTT data (raw readout) (HepG2; [6]): 0.977 and 1.029 and 0.973
MTT data (raw readout) (HepG2; [7]): 0.822 and 0.816 and 0.771
MTT data (raw readout) (HepG2; [8]): 0.952 and 1.030 and 0.967
MTT data (raw readout) (HepG2; [9]): 0.836 and 0.820 and 0.813
MTT data (raw readout) (HepG2; [10]): 0.913 and 0.914 and 0.948
MTT data (raw readout) (HepG2; [11]): 0.795 and 0.749 and 0.743
IC50 (HepG2): 1.7 µM
MTT data (raw readout) (HEK293T; [12]): 1.333 and 1.279 and 1.355
MTT data (raw readout) (HEK293T; [13]): 1.390 and 1.481 and 1.407
MTT data (raw readout) (HEK293T; [14]): 1.383 and 1.359
MTT data (raw readout) (HEK293T; [15]): 1.383 and 1.292 and 1.538
MTT data (raw readout) (HEK293T; [16]): 1.318 and 1.351 and 1.256
MTT data (raw readout) (HEK293T; [17]): 1.291 and 1.248 and 1.339
MTT data (raw readout) (HEK293T; [18]): 1.028 and 1.043 and 1.203
MTT data (raw readout) (HEK293T; [19]): 1.142 and 1.303 and 1.183
MTT data (raw readout) (HEK293T; [20]): 0.845 and 0.882 and 0.691
MTT data (raw readout) (HEK293T; [21]): 0.871 and 0.885 and 0.773
MTT data (raw readout) (HEK293T; [22]): 0.197 and 0.226 and 0.189
MTT data (raw readout) (HEK293T; [23]): 0.227 and 0.205 and 0.278
MTT data (raw readout) (HEK293T; [24]): 0.068 and 0.048 and 0.059
MTT data (raw readout) (HEK293T; [25]): 0.036 and 0.035 and 0.032
MTT data (raw readout) (HEK293T; [26]): 0.032 and 0.034 and 0.028
IC50 (HEK293T; Homo sapiens, HEK-293T): 1.7 µM
IC50 (HEK293T): 2.6 µM

MIC (E. coli W3110; Escherichia coli, W3110, WT): > 50 µM
MIC (E. coli W3110; WT): >50 µM
MIC (K. pneumoniae ATCC 29665; [1]): > 50 µM
MIC (K. pneumoniae ATCC 29665; broth microdilution): >50 µM
Structure (SMILES): O=S(=O)(NCCNCc1ccc(-c2ccc(C(F)(F)F)cc2)cc1)c1cccc2cnccc12 [Compound 64]

MIC (E. coli W3110; Escherichia coli, W3110, WT): 12.5 µM (≈ 5.44 µg/mL)
MIC (K. pneumoniae ATCC 29665; [1]): 25 µM (≈ 10.9 µg/mL)
Structure (SMILES): O=S(=O)(NCCNCc1ccc(-c2ccccc2)c(F)c1)c1cccc2cnccc12 [Compound 88]

MIC (E. coli W3110; Escherichia coli, W3110, WT): 25 µM (≈ 11.2 µg/mL)
MIC (K. pneumoniae ATCC 29665; [1]): 50 µM (≈ 22.4 µg/mL)
Structure (SMILES): COc1ccccc1-c1ccc(CNCCNS(=O)(=O)c2cccc3cnccc23)cc1 [Compound 73]

MIC (E. coli W3110; Escherichia coli, W3110, WT): 12.5 µM (≈ 5.44 µg/mL)
MIC (K. pneumoniae ATCC 29665; [1]): 25 µM (≈ 10.9 µg/mL)
Structure (SMILES): O=S(=O)(NCCNCc1ccc(-c2cccc(F)c2)cc1)c1cccc2cnccc12 [Compound 66]

MIC (E. coli W3110; Escherichia coli, W3110, WT): > 50 µM
MIC (E. coli W3110; WT): >50 µM
MIC (K. pneumoniae ATCC 29665; [1]): 50 µM (≈ 21.6 µg/mL)
Structure (SMILES): CN(CCNS(=O)(=O)c1cccc2cnccc12)Cc1ccc(-c2cccnc2)cc1 [Compound 95]
antimicrobial activity (E. coli W3110): abolished all activity

MIC (E. coli W3110; Escherichia coli, W3110, WT): > 50 µM
MIC (E. coli W3110; WT): >50 µM
MIC (K. pneumoniae ATCC 29665; [1]): > 50 µM
MIC (K. pneumoniae ATCC 29665; broth microdilution): >50 µM
Structure (SMILES): O=S(=O)(NCCNCc1ccc(-c2ccccc2)c(Cl)c1)c1cccc2cnccc12 [Compound 84]

MIC (E. coli W3110; Escherichia coli, W3110, WT): 12.5 µM (≈ 5.39 µg/mL)
MIC (K. pneumoniae ATCC 29665; [1]): 50 µM (≈ 21.6 µg/mL)
Structure (SMILES): Cc1ccccc1-c1ccc(CNCCNS(=O)(=O)c2cccc3cnccc23)cc1 [Compound 71]
